From ChEMBL document CHEMBL3045339, “Synthesis of benzoxazoles, benzothiazoles and benzimidazoles and evaluation of their antifungal, insecticidal and herbicidal activities” (1992)
Values after ≈ are worked out from the molar mass of the structure shown.

Assays:
Type in all cases: functional
Cyperus compressus = assay: Herbicidal activity against Cyperus compressus assessed as disease control at 1000 ppm treated in paddy field during 15 to 20 days relative to control
Pyricularia oryzae = assay: Antifungal activity against Magnaporthe oryzae after 7 days; design: concentration or dose not given beside the values
Panonychus citri [1] = assay: Insecticidal activity against Panonychus citri at 500 ppm up to 21 days
Chenopodium album [2] = assay: Herbicidal activity against Chenopodium album assessed as disease control at 1000 ppm treated in foliage during 15 to 20 days relative to control
Amaranthus viridis [3] = assay: Herbicidal activity against Amaranthus viridis assessed as disease control at 1000 ppm treated in foliage during 15 to 20 days relative to control
Xanthomonas axonopodis = assay: Antibacterial activity against Xanthomonas axonopodis after 7 days; design: concentration or dose not given beside the values
Amaranthus viridis [4] = assay: Herbicidal activity against Amaranthus viridis assessed as disease control at 1000 ppm treated in soil during 15 to 20 days relative to control
Oryza sativa = assay: Herbicidal activity against Oryza sativa assessed as disease control at 1000 ppm treated in paddy field during 15 to 20 days relative to control
Eleusine indica [5] = assay: Herbicidal activity against Eleusine indica assessed as disease control at 1000 ppm treated in foliage during 15 to 20 days relative to control
[6] = system: Pseudoperonospora cubensis; assay: Antifungal activity against Pseudoperonospora cubensis after 7 days; design: concentration or dose not given beside the values
Chenopodium album [7] = assay: Herbicidal activity against Chenopodium album assessed as disease control at 1000 ppm treated in soil during 15 to 20 days relative to control
Echinochloa crus-galli [8] = assay: Herbicidal activity against Echinochloa crus-galli (barnyard grass) assessed as disease control at 1000 ppm treated in paddy field during 15 to 20 days relative to control
Fusarium fujikuroi = assay: Antifungal activity against Fusarium fujikuroi after 7 days; design: concentration or dose not given beside the values
Eleusine indica [9] = assay: Herbicidal activity against Eleusine indica assessed as disease control at 1000 ppm treated in soil during 15 to 20 days relative to control
Persicaria hydropiper [10] = assay: Herbicidal activity against Persicaria hydropiper assessed as disease control at 1000 ppm treated in foliage during 15 to 20 days relative to control
Echinochloa crus-galli [11] = assay: Herbicidal activity against Echinochloa crus-galli (barnyard grass) assessed as disease control at 1000 ppm treated in soil during 15 to 20 days relative to control
Botrytis cinerea = assay: Antifungal activity against Botryotinia fuckeliana after 7 days; design: concentration or dose not given beside the values
Persicaria hydropiper [12] = assay: Herbicidal activity against Persicaria hydropiper assessed as disease control at 1000 ppm treated in soil during 15 to 20 days relative to control
Echinochloa crus-galli [13] = assay: Herbicidal activity against Echinochloa crus-galli (barnyard grass) assessed as disease control at 1000 ppm treated in foliage during 15 to 20 days relative to control
Escherichia coli = assay: Antibacterial activity against Escherichia coli after 48 hr
Staphylococcus aureus = assay: Antibacterial activity against Staphylococcus aureus after 48 hr
Pseudomonas aeruginosa = assay: Antibacterial activity against Pseudomonas aeruginosa after 48 hr
Mycobacterium = assay: Antibacterial activity against Mycobacterium ovicum after 48 hr
Bacillus subtilis = assay: Antibacterial activity against Bacillus subtilis after 48 hr
Panonychus citri [14] = assay: Insecticidal activity against Panonychus citri at 200 ppm up to 21 days

Compound	Activity (Cyperus compressus)	Activity (Pyricularia oryzae)	Activity (Panonychus citri [1])	Activity (Chenopodium album [2])	Activity (Amaranthus viridis [3])	Activity (Xanthomonas axonopodis)	Activity (Amaranthus viridis [4])	Activity (Oryza sativa)	Activity (Eleusine indica [5])	Activity [6]	Activity (Chenopodium album [7])	Activity (Echinochloa crus-galli [8])	Activity (Fusarium fujikuroi)	Activity (Eleusine indica [9])	Activity (Persicaria hydropiper [10])	Activity (Echinochloa crus-galli [11])	Activity (Botrytis cinerea)	Activity (Persicaria hydropiper [12])	Activity (Echinochloa crus-galli [13])	MIC (Escherichia coli)	also measured
Clc1cccc2nc(-c3ccccn3)[nH]c12	<39%	>80%	91.5%	<39%	<39%	60%	<39%	<39%	<39%	<39%	<39%	<39%	<39%	<39%	<39%	<39%	>80%	<39%	<39%	–	–
Clc1ccc2nc(-c3ccccn3)[nH]c2c1	<39%	60%	32.5%	<39%	<39%	60%	<39%	<39%	<39%	>80%	<39%	<39%	<39%	<39%	<39%	<39%	>80%	<39%	<39%	50 µg/mL (≈ 218 µM)	MIC (Staphylococcus aureus): 50 µg/mL (≈ 218 µM); MIC (Pseudomonas aeruginosa): 100 µg/mL (≈ 435 µM); MIC (Mycobacterium): 50 µg/mL (≈ 218 µM); MIC (Bacillus subtilis): 50 µg/mL (≈ 218 µM)
c1ccc2[nH]c(-c3ccnc4ccccc34)nc2c1	–	–	–	–	–	–	–	–	–	–	–	–	–	–	–	–	–	–	–	100 µg/mL (≈ 408 µM)	MIC (Pseudomonas aeruginosa): 100 µg/mL (≈ 408 µM); MIC (Bacillus subtilis): 100 µg/mL (≈ 408 µM)
O=[N+]([O-])c1ccc2[nH]c(-c3ccccn3)nc2c1	<39%	60%	–	<39%	<39%	40%	<39%	<39%	<39%	<39%	<39%	<39%	<39%	<39%	<39%	<39%	<39%	<39%	<39%	10 µg/mL (≈ 41.6 µM)	MIC (Staphylococcus aureus): 50 µg/mL (≈ 208 µM); MIC (Pseudomonas aeruginosa): 100 µg/mL (≈ 416 µM); MIC (Mycobacterium): 50 µg/mL (≈ 208 µM); MIC (Bacillus subtilis): 50 µg/mL (≈ 208 µM)
OC(c1ccc(Cl)cc1)(c1ccc(Cl)cc1)C(Cl)(Cl)Cl [DICOFOL]	–	–	–	–	–	–	–	–	–	–	–	–	–	–	–	–	–	–	–	–	Activity (Panonychus citri [14]): 98.3%
FC(F)(F)c1ccc2sc(-c3ccccn3)nc2c1	>80%	<39%	81.3%	>80%	>80%	<39%	60%	<39%	<39%	<39%	<39%	>80%	<39%	<39%	<39%	<39%	<39%	<39%	<39%	–	–
